According to ChEMBL document CHEMBL3792339, “Identification of new quinic acid derivatives as histone deacetylase inhibitors by fluorescence-based cellular assay” (Bioorg Med Chem Lett, 2016):
Active and inactive are the calls of the source. The calls are words filed in the database; no cut-off is given here.

How the values were obtained:
C127-LT [1] = assay: Inhibition of HDAC in mouse C127-LT cells assessed as activation of EGFP expression at 10 uM after 24 hrs by fluorescence microscopy; assay type: cell-based
C127-LT [2] = assay: Inhibition of HDAC in mouse C127-LT cells assessed as activation of EGFP expression at 200 nM after 24 hrs by fluorescence microscopy; assay type: cell-based
Histone deacetylase [3] = assay: Inhibition of HDAC in human HeLa cells using Boc-Lys(AC)-AMC as substrate after 24 to 48 hrs by spectrofluorometry; assay type: cell-based
Histone deacetylase [4] = assay: Inhibition of HDAC in human HeLa nuclear extract using fluor de lys as substrate after 10 to 15 mins by spectrofluorometry; assay type: protein assay
C127-LT [5] = assay: Inhibition of HDAC in mouse C127-LT cells assessed as activation of EGFP expression at 1 uM after 24 hrs by fluorescence microscopy; assay type: cell-based
[6] = target: T1, Histone deacetylase (Homo sapiens) (UniProt Q13547+O15379+Q9UBN7+Q92769+Q9UQL6+Q8WUI4+Q9BY41+Q96DB2+P56524+Q9UKV0+Q969S8); settings: at 10 to 25 µM
Description: Competitive inhibition of HDAC in human HeLa nuclear cells at 10 to 25 uM using Boc-acetyl-lysine-AMC as substrate after 30 mins by Lineweaver-Burk plot analysis

[7] = target: T1, Histone deacetylase (Homo sapiens); assay: Inhibition of HDAC in human HeLa nuclear extract assessed as accumulation of acetylated histone H3 at 0.1 to 100 uM after 24 hrs by western blot analysis; assay type: protein assay

Row | Compound | inhibition (C127-LT [1]) | further results
1 | C=C1[C@@H]2[C@H]3OC(=O)[C@@H](CN[C@H](C(=O)O)C(C)C)[C@@H]3[C@@H](O)CC(=C)[C@@H]2C[C@@H]1O | inactive | –
2 | C=C1CC[C@@H]2[C@](C)(CCC[C@]2(C)C(=O)O)[C@H]1CCC1=CC(OCCCC)OC1=O (some centres undefined) | inactive | –
3 | CC(/C=C/C(=O)NO)=C\[C@@H](C)C(=O)c1ccc(N(C)C)cc1 | – | inhibition (C127-LT [2]): Active
4 | O=C(/C=C/c1ccc(O)c(O)c1)O[C@@H]1C[C@](O)(C(=O)O)C[C@@H](OC(=O)/C=C/c2ccc(O)c(O)c2)[C@H]1O | inactive | IC50 (Histone deacetylase [3]): > 500 µM; IC50 (Histone deacetylase [4]): 143.24 µM
5 | Nc1ccccc1NC(=O)c1ccc(CNC(=O)OCc2cccnc2)cc1 | Active | inhibition (C127-LT [5]): Active
6 | COc1ccc2cc3[n+](cc2c1OC)CCc1cc2c(cc1-3)OCO2 | Active | –
7 | COc1cc2c3c(cc4ccccc4c3c1O)NC2=O | inactive | –
8 | O=C(/C=C/c1ccc(O)c(O)c1)O[C@@H]1C[C@](O)(C(=O)O)C[C@@H](O)[C@H]1O [CHLOROGENIC ACID] | inactive | IC50 (Histone deacetylase [3]): > 200 µM; IC50 (Histone deacetylase [4]): > 200 µM
9 | COc1cc(-c2oc3cc(O)cc(O)c3c(=O)c2O[C@@H]2O[C@H](CO[C@@H]3O[C@@H](C)[C@H](O)[C@@H](O)[C@H]3O)[C@@H](O)[C@H](O)[C@H]2O)ccc1O | Active | –
10 | C=C1C(=O)O[C@@H]2[C@H]3C(=C)[C@@H](O)C[C@H]3C(=C)C[C@H](OC(=O)CC(C)(C)O)[C@@H]12 | inactive | –
11 | C=C1[C@@H]2[C@H]3OC(=O)[C@@H](CN4CCC[C@H]4C(=O)O)[C@@H]3[C@@H](OC(=O)C(C)(O)CO)CC(=C)[C@@H]2C[C@@H]1O (some centres undefined) | inactive | –
12 | COc1cc2c(cc1OC)[C@@H]1Cc3ccc(O)c(O)c3CN1CC2 | Active | –
13 | C=C(CO)C(=O)O[C@H]1CC(=C)[C@@H]2C[C@H](O)C(=C)[C@@H]2[C@H]2OC(=O)C(=C)[C@@H]21 | inactive | –
14 | C=C1[C@@H]2[C@H]3OC(=O)[C@@H](CN[C@@H](Cc4c[nH]c5ccccc45)C(=O)O)[C@@H]3[C@@H](O)CC(=C)[C@@H]2C[C@@H]1O | inactive | –
15 | COC(=O)[C@]1(O)C[C@@H](OC(=O)/C=C/c2ccc(O)c(O)c2)[C@@H](O)[C@H](OC(=O)/C=C/c2ccc(O)c(O)c2)C1 | Active | inhibition [6]: Active; IC50 (Histone deacetylase [3]): 7.59 µM; IC50 (Histone deacetylase [4]): 4.99 µM; inhibition [7]: Active
16 | CC(=O)OCCc1ccc(O)c(O)c1 | Active | –
17 | O=C(/C=C/c1ccc(O)c(O)c1)O[C@@H]1C[C@@](O)(C(=O)O)C[C@@H](O)[C@@H]1O | inactive | IC50 (Histone deacetylase [3]): > 200 µM; IC50 (Histone deacetylase [4]): 170.4 µM
18 | C=C1C(=O)O[C@@H]2[C@H]3C(=C)[C@@H](O)C[C@H]3C(=C)C[C@H](OC(=O)C(C)(O)CO)[C@@H]12 (some centres undefined) | inactive | –
